Measurements taken from PubChem BioAssay (NCI).
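Interpolation was linear, between the two tested concentrations surrounding the appropriate level; five concentrations were tested over 48 hours in 96-well plates. Definition used: TGI = concentration required for complete inhibition of growth.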

How the values were obtained:
Test in all cases: NCI-60 cell line screen, 48 h
A549 NSCLC = test system: A549 NSCLC
HS 578T breast = test system: HS 578T breast
IGROV1 ovarian = test system: IGROV1 ovarian
K-562 leukemia = test system: K-562 leukemia
MDA-MB-231 breast = test system: MDA-MB-231 breast
NCI/ADR-RES ovarian = test system: NCI/ADR-RES ovarian
SF-268 CNS = test system: SF-268 CNS
SK-MEL-28 melanoma = test system: SK-MEL-28 melanoma
SR leukemia = test system: SR leukemia
OVCAR-4 ovarian = test system: OVCAR-4 ovarian

Structure (SMILES)	TGI (A549 NSCLC) [µM]	TGI (HS 578T breast) [µM]	TGI (IGROV1 ovarian) [µM]	TGI (K-562 leukemia) [µM]	TGI (MDA-MB-231 breast) [µM]	TGI (NCI/ADR-RES ovarian) [µM]	TGI (SF-268 CNS) [µM]	TGI (SK-MEL-28 melanoma) [µM]	TGI (SR leukemia) [µM]	TGI (OVCAR-4 ovarian) [µM]
Nc1ncc(Sc2ccccc2C(=O)O)s1	> 100	> 100	> 100	> 100	> 100	> 100	> 100	> 100	> 100	
CCN(CC)C(=S)S			> 100	30.1			> 100	> 84.6		
CCOP(=O)(/C=C/n1cnc2c(=O)n(C(C)=O)c(N)nc21)OCC	> 100	> 100	> 100	> 100	> 100	> 100	> 100	> 100		> 100
CCOP(=O)(/C=C\n1ccc(=O)[nH]c1=O)OCC	> 100		> 100	> 100	> 100	> 100	> 100	> 100		> 100
Clc1ccc(-c2nnc(-c3nsc4ccccc34)o2)cc1	> 100		> 100				66.6	> 100		34.5
Cc1ccc(C=C(C(=O)O)C(=O)O)o1	> 100	> 100	> 100	> 100	> 100	> 100	> 100	> 100	> 100	
CC1(CCCCO)C=CC(S(=O)(=O)c2ccccc2)CC1 (configuration not stated)	13.6		12.1	11.6	16.4	12.5	12.4	28.5	6.71	22.8
CCOC(=O)[C@H]1Nc2c(cccc2[N+](=O)[O-])C2c3ccccc3CC21 (some centres not stated)	> 100		> 100	> 100			> 100	> 100	> 100	> 100
O=C1c2ccccc2/C=C\C(c2ccccc2)=N/N1c1ccccc1Cl	60.5	> 100	> 100	> 100	49.2	63.5	> 100	> 100		97.2
Cn1cnnc1SC(F)(F)c1nc2ccccc2o1	> 100		> 100	> 100	> 100	> 100	> 100	> 100	> 100	> 100
Nc1ncnc2c1N=C(c1ccccc1)CC(c1ccccc1)N2 (configuration not stated)	> 100	> 100		> 100	> 100	> 100	> 100	> 100	> 100	> 100
N/C(=N\N=C/c1cc([N+](=O)[O-])cc([N+](=O)[O-])c1O)NO	> 100		> 100	> 91.2		> 100	> 100	> 100		> 100
Brc1ccc(-c2nc(-c3ccc(Br)cc3)n(-c3ccccc3)n2)cc1	> 100	> 100	> 100		> 100	> 100	> 100	> 100		> 100
